Laboratory results taken from ChEMBL document CHEMBL2429822, “Imaging probes of tau pathology” (ACS Med Chem Lett, 2013).
Calls of active or inactive are those of the source. No cut-off for these calls is given here.

Columns and labels:
[1] = target: Amyloid-beta precursor protein (Homo sapiens) (UniProt P05067); test: Binding affinity to human amyloid-beta plaques at 1 uM by fluorescence microscopy
[2] = target: Amyloid-beta precursor protein (Homo sapiens) (UniProt P05067); test: Binding affinity to human amyloid-beta plaques at 10 uM by fluorescence microscopy
[3] = target: Amyloid-beta precursor protein (Homo sapiens) (UniProt P05067); test: Binding affinity to human amyloid-beta plaques at 100 uM by fluorescence microscopy
[4] = target: Microtubule-associated protein tau (Homo sapiens) (UniProt P10636); test: Binding affinity to human tau associated NFTs at 1 uM by fluorescence microscopy
Microtubule-associated protein tau (Homo sapiens), sequence (P10636 whole entry): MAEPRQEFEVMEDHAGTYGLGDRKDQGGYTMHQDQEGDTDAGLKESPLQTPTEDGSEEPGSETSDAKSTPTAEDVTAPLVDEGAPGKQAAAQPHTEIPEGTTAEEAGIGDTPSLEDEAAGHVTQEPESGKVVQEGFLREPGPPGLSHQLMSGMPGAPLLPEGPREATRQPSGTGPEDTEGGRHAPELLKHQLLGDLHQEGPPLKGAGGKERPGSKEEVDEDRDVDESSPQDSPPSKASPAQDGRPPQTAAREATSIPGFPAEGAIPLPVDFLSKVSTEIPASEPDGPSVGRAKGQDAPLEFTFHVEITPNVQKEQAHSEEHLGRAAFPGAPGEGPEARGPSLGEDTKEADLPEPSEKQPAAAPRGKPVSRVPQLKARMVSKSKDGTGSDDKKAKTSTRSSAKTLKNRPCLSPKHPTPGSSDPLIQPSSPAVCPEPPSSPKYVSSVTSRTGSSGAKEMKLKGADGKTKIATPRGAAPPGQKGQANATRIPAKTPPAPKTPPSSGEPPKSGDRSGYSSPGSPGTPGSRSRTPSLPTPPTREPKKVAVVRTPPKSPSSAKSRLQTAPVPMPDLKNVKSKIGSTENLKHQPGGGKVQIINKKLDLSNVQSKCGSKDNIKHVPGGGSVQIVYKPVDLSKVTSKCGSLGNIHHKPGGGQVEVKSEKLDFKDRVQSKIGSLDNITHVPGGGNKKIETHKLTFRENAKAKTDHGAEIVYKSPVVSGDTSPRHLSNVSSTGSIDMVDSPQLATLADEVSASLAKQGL

[5] = target: Microtubule-associated protein tau (Homo sapiens) (UniProt P10636); test: Binding affinity to human tau associated NFTs at 10 uM by fluorescence microscopy
[6] = target: Microtubule-associated protein tau (Homo sapiens) (UniProt P10636); test: Binding affinity to human tau associated NFTs at 100 uM by fluorescence microscopy
Brain [7] = test: Ratio of clearance in C57B1/6 mouse brain at 2 MBq after 2 mins to clearance in C57B1/6 mouse brain at 2 MBq after 30 mins; assay type: ADME, tissue-based; conditions: in vivo
Brain [8] = test: Biodistribution in C57B1/6 mouse brain at 2 MBq, iv after 60 mins by gamma-counting analysis; assay type: ADME, organism-based; conditions: in vivo, 1 h
Brain [9] = test: Biodistribution in C57B1/6 mouse brain at 2 MBq, iv after 30 mins by gamma-counting analysis; assay type: ADME, organism-based; conditions: in vivo, 0.5 h
Brain [10] = test: Biodistribution in C57B1/6 mouse brain at 2 MBq, iv after 10 mins by gamma-counting analysis; assay type: ADME, organism-based; conditions: in vivo
Brain [11] = test: Biodistribution in C57B1/6 mouse brain at 2 MBq, iv after 2 mins by gamma-counting analysis; assay type: ADME, organism-based; conditions: in vivo
Brain [12] = test: Ratio of clearance in Wistar rat brain at 50 ug after 2 mins to clearance in Wistar rat brain at 50 ug after 30 mins; assay type: ADME, tissue-based; conditions: in vivo
Brain [13] = test: Biodistribution in Wistar rat brain at 50 ug, iv after 30 mins by […] analysis; assay type: ADME, organism-based; conditions: in vivo, 0.5 h
Brain [14] = test: Biodistribution in Wistar rat brain at 50 ug, iv after 60 mins by […] analysis; assay type: ADME, organism-based; conditions: in vivo, 1 h
Brain [15] = test: Biodistribution in Wistar rat brain at 50 ug, iv after 10 mins by […] analysis; assay type: ADME, organism-based; conditions: in vivo
Brain [16] = test: Biodistribution in Wistar rat brain at 50 ug, iv after 2 mins by […] analysis; assay type: ADME, organism-based; conditions: in vivo
[17] = tested as the 11C-labelled form

Amyloid-beta precursor protein (Homo sapiens), sequence (P05067 whole entry): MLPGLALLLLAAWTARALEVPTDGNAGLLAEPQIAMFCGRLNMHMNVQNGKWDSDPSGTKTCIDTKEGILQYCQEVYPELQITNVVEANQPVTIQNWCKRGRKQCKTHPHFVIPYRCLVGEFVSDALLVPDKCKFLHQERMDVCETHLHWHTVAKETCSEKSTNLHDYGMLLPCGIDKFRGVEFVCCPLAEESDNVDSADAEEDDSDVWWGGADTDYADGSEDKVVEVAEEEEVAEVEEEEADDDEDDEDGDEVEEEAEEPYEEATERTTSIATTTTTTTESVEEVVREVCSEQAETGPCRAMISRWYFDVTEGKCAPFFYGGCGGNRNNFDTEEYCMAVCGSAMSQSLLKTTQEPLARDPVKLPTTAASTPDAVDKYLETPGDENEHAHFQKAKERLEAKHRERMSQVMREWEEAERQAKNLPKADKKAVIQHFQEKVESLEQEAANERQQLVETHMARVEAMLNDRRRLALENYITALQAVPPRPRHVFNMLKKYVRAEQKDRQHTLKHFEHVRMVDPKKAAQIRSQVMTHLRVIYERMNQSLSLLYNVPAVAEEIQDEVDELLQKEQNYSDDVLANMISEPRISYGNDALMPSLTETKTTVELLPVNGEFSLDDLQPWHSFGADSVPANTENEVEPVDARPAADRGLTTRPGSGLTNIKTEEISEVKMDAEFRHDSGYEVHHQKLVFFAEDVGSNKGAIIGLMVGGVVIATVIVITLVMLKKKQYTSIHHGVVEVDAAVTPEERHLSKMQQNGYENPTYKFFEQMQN

Structure (SMILES)	Activity [2]	Activity [3]	Activity [4]	Activity [5]	Activity [6]	further results
CC(=C(C#N)C#N)c1ccc2cc(N(C)CCF)ccc2c1	Active	Active	Active	Active	Active	Activity [1]: Active
CC(C)NC(=O)c1nn(-c2ccc(F)cc2)c(=O)c2c(N)scc12	inactive	Active	inactive	inactive	Active	Activity [1]: inactive
CNc1ccc(-c2nc3ccc(O)cc3s2)cc1	–	–	–	–	–	Activity [1, 17]: Active; Activity [2, 17]: Active; Activity [3, 17]: Active; Activity [4, 17]: inactive; Activity [5, 17]: Active; Activity [6, 17]: Active
CC(C)NC(=O)c1nn(-c2ccc(OCC(O)CF)cc2)c(=O)c2c(N)scc12 (configuration not stated)	–	inactive	–	–	inactive	–
CC(C)NC(=O)c1nn(-c2ccc(OCC[18F])cc2)c(=O)c2c(N)scc12	–	–	–	–	–	Ratio (Brain [7]): 2.3; Drug uptake (Brain [8]): 2.35%; Drug uptake (Brain [9]): 2.83%; Drug uptake (Brain [10]): 3.26%; Drug uptake (Brain [11]): 6.5%
CC(C)NC(=O)c1nn(-c2ccc(OCCF)cc2)c(=O)c2c(NC(=O)OC(C)(C)C)scc12	–	inactive	–	–	inactive	–
CC(C)NC(=O)c1nn(-c2ccc(OCCC[18F])cc2)c(=O)c2c(N)scc12	–	–	–	–	–	Ratio (Brain [7]): 2.8; Drug uptake (Brain [8]): 1.51%; Drug uptake (Brain [9]): 3.46%; Drug uptake (Brain [10]): 5.77%; Drug uptake (Brain [11]): 9.84%
CC(C)NC(=O)c1nn(-c2ccc([N+](=O)[O-])cc2)c(=O)c2c(N)scc12	inactive	Active	inactive	Active	Active	–
CC(C)(C)OC(=O)c1nn(-c2ccc(OCCF)cc2)c(=O)c2c(N)scc12	–	inactive	–	–	inactive	–

Now from value to compound, other results behind:

Activity [2]	Activity [3]	Activity [4]	Activity [5]	Activity [6]	Structure (SMILES)	further results
–	inactive	–	–	inactive	CC(C)NC(=O)c1nn(-c2ccc(OCCCF)cc2)c(=O)c2c(N)scc12	–
Active	Active	Active	Active	Active	CC(C)NC(=O)c1nn(-c2ccc(OCCF)cc2)c(=O)c2c(N)scc12	Ratio (Brain [12]): 13.3; Drug uptake (Brain [13]): 0.021%; Drug uptake (Brain [14]): 0.011%; Drug uptake (Brain [15]): 0.081%; Drug uptake (Brain [16]): 0.28%; Activity [1]: inactive
